Reference: paper PMC8037182, “Solvothermal Synthesis of Multiple Dihydropyrimidinones at a Time as Inhibitors of Eg5” (Molecules, 2021)

Key:
[1] = tested on: Hela cell line; test: Cytotoxicity MTS assay, Hela cell line; type: cell-based; conditions: for OD490 value, Mean / OD490 value, Well 1 / OD490 value, Well 2 / OD490 value, Well 3: Hela cell line, MTS;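 on OD490 value, Mean: blank control wells received 0.025% DMSO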;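 on OD490 value, Well 1: blank control wells received 0.025% DMSO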;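 on OD490 value, Well 2: blank control wells received 0.025% DMSO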;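 on OD490 value, Well 3: blank control wells received 0.025% DMSO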
How it was run: (§1)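 Growth inhibition is measured by MTS conversion, read as absorbance at 490 nm after 2 h at 37 °C. Compounds act on cells seeded at 1000/well for 24 h across 0.5–100 µM final. Data derive from three independent duplicate experiments.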

[2] = tested on: T24 cell line; test: Cytotoxicity MTS assay, T24 cell line; type: cell-based; conditions: for OD490 Mean / OD490 Well 1 / OD490 Well 2 / OD490 Well 3: T24 cell line;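 on OD490 Mean: blank control wells received 0.025% DMSO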;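 on OD490 Well 1: blank control wells received 0.025% DMSO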;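 on OD490 Well 2: blank control wells received 0.025% DMSO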;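 on OD490 Well 3: blank control wells received 0.025% DMSO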
How it was run: as §1

CCOC(=O)c1[nH]c(C2NC(=O)NC(C)=C2C(=O)Nc2ccccc2C)c(C(=O)OC)c1C (centres unmarked) [D4]
OD490 value, Mean ([1]; 0.5μM, first assay): 2.5619 | OD490 value, Well 1 ([1]; 0.5μM, first assay): 2.3169 | OD490 value, Well 2 ([1]; 0.5μM, first assay): 2.6787 | OD490 value, Well 3 ([1]; 0.5μM, first assay): 2.6902 | OD490 value, Mean ([1]; 0.5μM, second assay): 2.6585 | OD490 value, Well 1 ([1]; 0.5μM, second assay): 2.7756 | OD490 value, Well 2 ([1]; 0.5μM, second assay): 2.2036 | OD490 value, Well 3 ([1]; 0.5μM, second assay): 2.9963 | OD490 value, Mean ([1]; 0.5μM, third assay): 2.6298 | OD490 value, Well 1 ([1]; 0.5μM, third assay): 2.6541 | OD490 value, Well 2 ([1]; 0.5μM, third assay): 2.5689 | OD490 value, Well 3 ([1]; 0.5μM, third assay): 2.6665 | OD490 value, Mean ([1]; 1μM, first assay): 2.4999 | OD490 value, Well 1 ([1]; 1μM, first assay): 2.4427 | OD490 value, Well 2 ([1]; 1μM, first assay): 2.5466 | OD490 value, Well 3 ([1]; 1μM, first assay): 2.5103 | OD490 value, Mean ([1]; 1μM, second assay): 2.6707 | OD490 value, Well 1 ([1]; 1μM, second assay): 2.6654 | OD490 value, Well 2 ([1]; 1μM, second assay): 2.6879 | OD490 value, Well 3 ([1]; 1μM, second assay): 2.6588 | OD490 value, Mean ([1]; 1μM, third assay): 2.5654 | OD490 value, Well 1 ([1]; 1μM, third assay): 2.6540 | OD490 value, Well 2 ([1]; 1μM, third assay): 2.5421 | OD490 value, Well 3 ([1]; 1μM, third assay): 2.5000 | OD490 value, Mean ([1]; 10μM, first assay): 2.7063 | OD490 value, Well 1 ([1]; 10μM, first assay): 2.6331 | OD490 value, Well 2 ([1]; 10μM, first assay): 2.7562 | OD490 value, Well 3 ([1]; 10μM, first assay): 2.7295 | OD490 value, Mean ([1]; 10μM, second assay): 2.7726 | OD490 value, Well 1 ([1]; 10μM, second assay): 2.6985 | OD490 value, Well 2 ([1]; 10μM, second assay): 2.7856 | OD490 value, Well 3 ([1]; 10μM, second assay): 2.8336 | OD490 value, Mean ([1]; 10μM, third assay): 2.5863 | OD490 value, Well 1 ([1]; 10μM, third assay): 2.3545 | OD490 value, Well 2 ([1]; 10μM, third assay): 2.7454 | OD490 value, Well 3 ([1]; 10μM, third assay): 2.6589 | OD490 value, Mean ([1]; 25μM, first assay): 2.5844 | OD490 value, Well 1 ([1]; 25μM, first assay): 2.5014 | OD490 value, Well 2 ([1]; 25μM, first assay): 2.5977 | OD490 value, Well 3 ([1]; 25μM, first assay): 2.6541 | OD490 value, Mean ([1]; 25μM, second assay): 2.6351 | OD490 value, Well 1 ([1]; 25μM, second assay): 2.6354 | OD490 value, Well 2 ([1]; 25μM, second assay): 2.6289 | OD490 value, Well 3 ([1]; 25μM, second assay): 2.6410 | OD490 value, Mean ([1]; 25μM, third assay): 2.6063 | OD490 value, Well 1 ([1]; 25μM, third assay): 2.5658 | OD490 value, Well 2 ([1]; 25μM, third assay): 2.6542 | OD490 value, Well 3 ([1]; 25μM, third assay): 2.5988 | OD490 value, Mean ([1]; 50μM, first assay): 2.4897 | OD490 value, Well 1 ([1]; 50μM, first assay): 2.2013 | OD490 value, Well 2 ([1]; 50μM, first assay): 2.5633 | OD490 value, Well 3 ([1]; 50μM, first assay): 2.7046 | OD490 value, Mean ([1]; 50μM, second assay): 2.4794 | OD490 value, Well 1 ([1]; 50μM, second assay): 2.5532 | OD490 value, Well 2 ([1]; 50μM, second assay): 2.4198 | OD490 value, Well 3 ([1]; 50μM, second assay): 2.4652 | OD490 value, Mean ([1]; 50μM, third assay): 2.5366 | OD490 value, Well 1 ([1]; 50μM, third assay): 2.4650 | OD490 value, Well 2 ([1]; 50μM, third assay): 2.5462 | OD490 value, Well 3 ([1]; 50μM, third assay): 2.5985 | OD490 value, Mean ([1]; 100μM, first assay): 1.9103 | OD490 value, Well 1 ([1]; 100μM, first assay): 1.9024 | OD490 value, Well 2 ([1]; 100μM, first assay): 1.9524 | OD490 value, Well 3 ([1]; 100μM, first assay): 1.8761 | OD490 value, Mean ([1]; 100μM, second assay): 2.0041 | OD490 value, Well 1 ([1]; 100μM, second assay): 2.0124 | OD490 value, Well 2 ([1]; 100μM, second assay): 2.0036 | OD490 value, Well 3 ([1]; 100μM, second assay): 1.9963 | OD490 value, Mean ([1]; 100μM, third assay): 1.9351 | OD490 value, Well 1 ([1]; 100μM, third assay): 1.8989 | OD490 value, Well 2 ([1]; 100μM, third assay): 1.9478 | OD490 value, Well 3 ([1]; 100μM, third assay): 1.9587 | IC50 ([1]; MTS assay, 24 h exposure): > 150 µM | IC50 ([2]; MTS assay, 24 h exposure): 129 µM | OD490 Mean ([2]; 0.5μM, first assay): 1.9335 | OD490 Well 1 ([2]; 0.5μM, first assay): 1.4364 | OD490 Well 2 ([2]; 0.5μM, first assay): 2.2473 | OD490 Well 3 ([2]; 0.5μM, first assay): 2.1169 | OD490 Mean ([2]; 0.5μM, second assay): 1.7407 | OD490 Well 1 ([2]; 0.5μM, second assay): 1.6852 | OD490 Well 2 ([2]; 0.5μM, second assay): 1.7785 | OD490 Well 3 ([2]; 0.5μM, second assay): 1.7585 | OD490 Mean ([2]; 0.5μM, third assay): 1.7395 | OD490 Well 1 ([2]; 0.5μM, third assay): 1.7423 | OD490 Well 2 ([2]; 0.5μM, third assay): 1.7741 | OD490 Well 3 ([2]; 0.5μM, third assay): 1.7022 | OD490 Mean ([2]; 1μM, first assay): 2.0004 | OD490 Well 1 ([2]; 1μM, first assay): 1.9146 | OD490 Well 2 ([2]; 1μM, first assay): 1.8237 | OD490 Well 3 ([2]; 1μM, first assay): 2.2630 | OD490 Mean ([2]; 1μM, second assay): 1.6895 | OD490 Well 1 ([2]; 1μM, second assay): 1.7235 | OD490 Well 2 ([2]; 1μM, second assay): 1.6895 | OD490 Well 3 ([2]; 1μM, second assay): 1.6555 | OD490 Mean ([2]; 1μM, third assay): 1.7159 | OD490 Well 1 ([2]; 1μM, third assay): 1.7423 | OD490 Well 2 ([2]; 1μM, third assay): 1.7020 | OD490 Well 3 ([2]; 1μM, third assay): 1.7033 | OD490 Mean ([2]; 10μM, first assay): 1.7700 | OD490 Well 1 ([2]; 10μM, first assay): 1.7289 | OD490 Well 2 ([2]; 10μM, first assay): 1.7432 | OD490 Well 3 ([2]; 10μM, first assay): 1.8379 | OD490 Mean ([2]; 10μM, second assay): 1.7224 | OD490 Well 1 ([2]; 10μM, second assay): 1.6895 | OD490 Well 2 ([2]; 10μM, second assay): 1.7125 | OD490 Well 3 ([2]; 10μM, second assay): 1.7652 | OD490 Mean ([2]; 10μM, third assay): 1.7024 | OD490 Well 1 ([2]; 10μM, third assay): 1.6647 | OD490 Well 2 ([2]; 10μM, third assay): 1.7424 | OD490 Well 3 ([2]; 10μM, third assay): 1.7000 | OD490 Mean ([2]; 25μM, first assay): 1.7511 | OD490 Well 1 ([2]; 25μM, first assay): 1.6328 | OD490 Well 2 ([2]; 25μM, first assay): 1.8078 | OD490 Well 3 ([2]; 25μM, first assay): 1.8128 | OD490 Mean ([2]; 25μM, second assay): 1.5821 | OD490 Well 1 ([2]; 25μM, second assay): 1.5660 | OD490 Well 2 ([2]; 25μM, second assay): 1.5848 | OD490 Well 3 ([2]; 25μM, second assay): 1.5954 | OD490 Mean ([2]; 25μM, third assay): 1.5535 | OD490 Well 1 ([2]; 25μM, third assay): 1.5385 | OD490 Well 2 ([2]; 25μM, third assay): 1.5232 | OD490 Well 3 ([2]; 25μM, third assay): 1.5987 | OD490 Mean ([2]; 50μM, first assay): 1.6313 | OD490 Well 1 ([2]; 50μM, first assay): 1.6866 | OD490 Well 2 ([2]; 50μM, first assay): 1.7561 | OD490 Well 3 ([2]; 50μM, first assay): 1.4513 | OD490 Mean ([2]; 50μM, second assay): 1.4096 | OD490 Well 1 ([2]; 50μM, second assay): 1.4425 | OD490 Well 2 ([2]; 50μM, second assay): 1.4212 | OD490 Well 3 ([2]; 50μM, second assay): 1.3652 | OD490 Mean ([2]; 50μM, third assay): 1.4169 | OD490 Well 1 ([2]; 50μM, third assay): 1.4284 | OD490 Well 2 ([2]; 50μM, third assay): 1.4022 | OD490 Well 3 ([2]; 50μM, third assay): 1.4202 | OD490 Mean ([2]; 100μM, first assay): 1.4469 | OD490 Well 1 ([2]; 100μM, first assay): 1.4538 | OD490 Well 2 ([2]; 100μM, first assay): 1.4557 | OD490 Well 3 ([2]; 100μM, first assay): 1.4313 | OD490 Mean ([2]; 100μM, second assay): 1.2781 | OD490 Well 1 ([2]; 100μM, second assay): 1.3325 | OD490 Well 2 ([2]; 100μM, second assay): 1.2654 | OD490 Well 3 ([2]; 100μM, second assay): 1.2365 | OD490 Mean ([2]; 100μM, third assay): 1.2819 | OD490 Well 1 ([2]; 100μM, third assay): 1.2539 | OD490 Well 2 ([2]; 100μM, third assay): 1.3332 | OD490 Well 3 ([2]; 100μM, third assay): 1.2585
